By melting point is commonly meant the temperature of the solid-liquid transition.

Regarding `Fc1cccc(Oc2ccc(-c3c[nH]c(COc4ccccc4)n3)cc2)c1F` [Example 56, 4-[4-(2,3-difluorophenoxy)phenyl]-2-(phenoxymethyl)-1H-imidazole], the melting point lay within 127 to 129 °C.
Under `Fc1cccc(F)c1Oc1ccc(-c2c[nH]c(COc3ccccc3)n2)cc1` [Example 57, 4-[4-(2,6-difluorophenoxy)phenyl]-2-(phenoxymethyl)-1H-imidazole] stands 143 to 145 °C.
